# Results reported in patent publication US20110117055A1, “Methods of Treating Hepatitis C Virus with Oxoacetamide Compounds” (priority 2009, published 2011).
# “Also recorded” adds a separate entry of the source. Read-outs that look alike come from different tables or passages of the source.
# Columns and labels:
# SR-B1 pathway = settings: cited from earlier work
# HCV = assay: Combination of viral entry inhibitor with HCV protease inhibitor VX-950; type: cell-based; settings: fixed ratio based on EC50
# Procedure: Additional combination studies of Compound 1 and Compound 5 with the HCV NS3 protease inhibitor VX-950 were conducted. Compound 1 and Compound 5 were tested singly and in combination with VX-950. The ratio of the two compounds, based on the compound's EC50, remained fixed across the dosing range. The potential cytotoxicity of individual compounds was assessed with a luminescent ATP-based cell viability assay (Cell Titer-Glo; Promega). Cell culture and luciferase compound assays were performed as previously described in Example 3.
# Compound interactions were quantified by the approach described by Chou and Talalay, relying on the median effect principle and the multiple-drug effect equation. […] Isobolograms were generated for each combination tested and were used to determine the additivity, synergism or antagonism of inhibitor combinations. Combination indices (CI) were determined with Calcusyn (Biosoft) for each experiment at the EC50, EC75, and EC90 of the combination. By convention, a CI of <0.9 was considered synergistic, a CI of ≧0.9 or ≦1.1 was considered additive, and a CI of >1.1 was deemed antagonistic. […] Combination indices (CI) were determined with Calcusyn (Biosoft) for each experiment at the EC50, EC75, and EC90 of the combination. By convention, a CI of <0.9 was considered synergistic, a CI of ≧0.9 or ≦1.1 was considered additive, and a CI of >1.1 was deemed antagonistic.
# [1] = tested on: HCV2aCh (E2:G451R) mutant virus; assay: E2:G451R mutant virus, immuno-fluorescence read-out; type: cell-based, HCV genotype 2a
# Procedure: IF analysis: Following aspiration of supernatant from a 24-well plate, 1 ml of ice cold methanol was added to each well and the plate was stored overnight at −20° C. The following day, methanol was removed and the plates were air-dried at room temperature for about 30 minutes. The plate was then rinsed/rehydrated with two washes of PBS (˜5 minutes/wash). To block non-specific antibody binding, cells were incubated in blocking buffer (1% BSA, 0.2% skim milk in PBS) for 1 hour at room temperature. Primary antibody (mouse anti-HCV Core; Affinity BioReagents, MA1-080) was diluted 1:1000 in PBS+0.1% Tween-20 and incubated overnight at 4° C. on rocker (˜200 μl of antibody/well). The next day, wells were washed with PBS (three washes of 5 minutes each) and then incubated for 30 minutes at room temperature with a secondary antibody: goat anti-mouse_AlexaFluor488 (1:1000 dilution in PBS/Tween; Molecular Probes/Invitrogen #A11001). The cells were then washed with PBS three times (5 minutes each), including once with Hoechst dye (0.4 ug/ml; Molecular Probes/Invitrogen #H3570) to counterstain the nuclei of cells. Immunofluorescence staining was analyzed using 10× objective on a Zeiss fluorescent microscope.
# HCV2aChLuc (NS3:A156S) = assay: Infectivity of protease mutant virus versus wild type in the presence of compounds; type: cell-based, HCV genotype 2a; settings: HCV2aChLuc (NS3:A156S) vs wild type HCV2aChLuc
# Source text: Therefore, we introduced A156S mutation in the backbone of HCV2aChLuc genome and investigated the infectivity of the mutant virus in the presence of compounds.
# Jc1-luc virus = assay: Synergy testing (Combination Index) in Jc1-luc system; type: cell-based, HCV genotype-2a
# Procedure: Luciferase compound activity assay. Cell culture and luciferase compound assays were performed as previously described. See Wyles et al., J. Virol. 2007, 81:3005-8; Wyles et al., Antimicrob Agents Chemother. 2009, 53:2660-2; Grünberger et al., J. Infect. Dis. 2008, 197:42-5; Wyles et al., Antimicrob Agents Chemother, 2008, 52:1862-4. Briefly, Huh7.5.1 cells were seeded into 96-well plates at a density of 10,000 cells per well in 100 μl medium. After incubating overnight for attachment, Jc1-luc virus at an MOI 0.01 was added to wells with or without compounds at the specified concentrations. All conditions were run in triplicate. After 24 hours, medium was aspirated and replaced with 100 μl of complete medium containing an identical concentration of compound(s) followed by additional 48 hour incubation. The luciferase assay (Bright-Glo; Promega) was carried out according to the manufacturer's instructions. Luciferase activity was determined using a microplate luminometer (Veritas microplate luminometer; Turner Biosystems). The relative light units (RLU) for each condition were reported as the mean±the standard error of the mean for the three wells.
# Synergy testing. The 50% effective concentration (EC50) of Compound 5 and other anti-HCV compounds was determined independently and used to set the range of concentrations for synergy experiments.
# Data analysis. Determinations of compound interactions were quantified based on the median-effect principle described by Chou and Talalay. Chou T., Talalay P., Adv. Enzyme. Regul., 1984, 22:27-55. Combination indices (CIs) were determined using Calcusyn (Biosoft) for each experiment at the EC50, EC75, and EC90 levels. Five replicates per condition were evaluated. A CI<0.9 was considered synergistic, a CI≧0.9 and ≦[…] was considered additive, and a CI>1.1 was deemed antagonistic.
# HCV1a/2a chimeric virus = assay: HCV entry assay with HCV1a/2a chimeric virus; type: cell-based, HCV genotype 1a; settings: compared with HCV2a chimeric virus
# Source text: Since HCV genotype 1 is the most prevalent genotype among the variants of HCV, we constructed an HCV1a/2a chimeric infectious clone with two cell-culture adaptive mutations introduced. Sequences for the structural proteins (including C, E1, and E2), p7, and NS2 were derived from HCV genotype 1a H77 strain. The rest of nonstructural proteins (NS3 to NS5B) and 3′ NTR were derived from HCV genotype 2a JFH strain. 5′NTR was originated from HCV2aJ6 (FIG. 7). […] Therefore, both HCV1a/2aCh virus and HCV1a/2aChLuc virus with Y361H and Q1251L mutations were successively produced in Huh7 cells and used for HCV entry assay.
# [2] = tested on: HCV genotype 1b subgenomic replicon; assay: HCV replicon assay (HCV1b replicon cells, NS5A ELISA); type: cell-based; settings: 3 days
# Procedure: Alternatively, Hut1b cells (Huh7 cells stably replicating HCV genotype 1b subgenomic replicon) were treated with serial dilutions of the test compound for 72 hours. Replication efficiency was monitored by ELISA assay using anti-HCV NS5A monoclonal antibody (Virogen).
# Increasing amounts of compound were inoculated onto HCV1b replicon cells and incubated for 3 days. Following incubation, HCV replication was monitored with NS5A protein expression by ELISA.
# [3] = tested on: HCV2aCh (E2:G451R) mutant virus; assay: E2:G451R mutant virus, Taqman assay for viral RNA copies; type: cell-based, HCV genotype 2a; settings: 0-500 nM; about 27.5 hours after virus exposure
# Procedure: Two 24-well plates were seeded with 4×10^4 cells/well. The following day, cell culture supernatant was aspirated and cells were exposed to HCV2aCh wild type (black bars) and HCV2aCh (E2:G451R) mutant (blue bars), Approximately 250 μl of cell culture virus was added to each well (˜1×10^4 TCID/well or moi ˜0.25). Immediately after the addition of virus to the well, 2.5 μl of 100× concentration of compound was added to each well—and mixed multiple times with a 100 ul pipet tip—to achieve final compound dilutions: 0 nM, 5 nM, 15 nM, 50 nM, 150 nM, and 500 nM. Compound 5 was tested. Each plate was processed consecutively. After addition of virus and compound the plates were placed in the incubator for ˜3.5 hours (37° C., 5% CO2). Following incubation, the supernatant was replaced with fresh media (˜1 ml/well) and plates were returned to incubator. Twenty-four hours later (˜27.5 hours following virus exposure to the cells), cells were washed once with 1 ml of PBS and then the cells were processed for Taqman analysis.
smiles,measurement,setting,value
"COc1c(NC(=O)C(=O)c2ccc(OCCN3CCOCC3)c3ccccc23)cc(C(C)(C)C)cc1NS(C)(=O)=O [Compound 5, N-(5-tert-butyl-2-methoxy-3-(methylsulfonamido)phenyl)-2-(4-(2-morpholinoethoxy)naphthalen-1-yl)-2-oxoacetamide]",HDL levels,SR-B1 pathway; mice with a knock-out in the SR-B1 gene,not
same,HDL levels,SR-B1 pathway; mice,raised HDL levels
same,effect of combination with VX-950,HCV,additive to slightly synergistic effects
same,"sensitivity of E2 mutant relative to wild-type virus, immuno-fluorescence",[1],more resistant
same,resistance of NS3:A156S mutant virus versus wild type (inhibition of infectivity),HCV2aChLuc (NS3:A156S),no significant difference
same,antagonism with any compound studied,Jc1-luc virus,not antagonistic
same,Combination Index (CI) with 2′-C-methyladenosine,Jc1-luc virus; at 50% effective dose (ED50),1.09
same,Combination Index (CI) with BILN2061,Jc1-luc virus; at 50% effective dose (ED50),0.98
same,Combination Index (CI) with interferon-alpha,Jc1-luc virus; at 50% effective dose (ED50),1.00
same,interaction with VX1,"Jc1-luc virus; at ED50, ED75 and ED90",consistent synergy
same,interaction with all compounds tested,Jc1-luc virus; at ED75 and ED90,synergy
same,inhibition of HCV1a chimeric virus,HCV1a/2a chimeric virus,inhibited
same,effect on HCV replication (NS5A protein expression by ELISA),[2],did not measurably inhibit; also recorded: no measurable effect
same,"sensitivity of E2 mutant virus relative to wild-type virus, Taqman assay for viral RNA copies",[3],greater resistance
